From the PolyMetriX glass transition set come the findings set out here.

Compound `*/C(Cl)=C(/*)c1ccccc1` (repeat unit) returned a glass transition temperature of 215.00 °C.

On to `*C(=O)OCC(C)(C)COC(=O)N1CCN(*)CC1` (repeat unit), for which the glass transition temperature was found to be 70.00 °C.

For `*C(=O)OCCN(CCOC(=O)c1ccc2c(c1)C(=O)N(c1c(C)cc(Cc3cc(C)c(N4C(=O)c5ccc(*)cc5C4=O)c(C)c3)cc1C)C2=O)c1ccc(/N=N/c2ccc([N+](=O)[O-])cc2C#N)cc1` (repeat unit), the glass transition temperature was determined as 216.00 °C.

`*C(=O)OCCN(CCOC(=O)c1ccc2c(c1)C(=O)N(c1c(C)cc(Cc3cc(C)c(N4C(=O)c5ccc(*)cc5C4=O)c(C)c3)cc1C)C2=O)c1ccc(/N=N/c2ccc([N+](=O)[O-])cc2[N+](=O)[O-])cc1` (repeat unit) returned a glass transition temperature of 176.00 °C.

For the compound `*C(=O)c1ccc2c(c1)C(=O)N(c1ccc(OCC(C)(C)COc3ccc(N4C(=O)c5ccc(*)cc5C4=O)cc3)cc1)C2=O` (repeat unit), the glass transition temperature was determined as 234.00 °C.

The compound `*C(CC)COC(=O)NCCCCCCNC(=O)OCC(CC)n1c(=O)c2cc3c(=O)n(*)c(=O)c3cc2c1=O` (repeat unit) came in with a glass transition temperature of 61.00 °C.

On to `*CC(=O)NCCCCCCNC(=O)COC(=O)CCCCCCCCCCC(=O)O*` (repeat unit), for which the glass transition temperature was determined as 0.90 °C.

`*CC(=O)NCCCCCCNC(=O)CS*` (repeat unit): the glass transition temperature is -7.00 °C.

In turn, `*CC(=O)Nc1ccc(Cc2ccc(NC(=O)COc3ccc4ccccc4c3Sc3c(O*)ccc4ccccc34)cc2)cc1` (repeat unit) came in with a glass transition temperature of 241.00 °C.

Take `*CC(=O)Nc1cccc(NC(=O)COc2ccc3ccccc3c2Sc2c(O*)ccc3ccccc23)c1` (repeat unit): the glass transition temperature was 254.00 °C.

Regarding `*CC(C)(C)COC(=O)NC(=O)c1cc(C(=O)NC(=O)O*)cc(C(C)(C)C)c1` (repeat unit), the glass transition temperature is 144.00 °C.

`*CC(C)(C)COC(=O)NC(=O)c1ccc(C(=O)NC(=O)O*)cc1` (repeat unit) gave a glass transition temperature of 102.00 °C.

The compound `*CC(C)(C)COC(=O)NC(=O)c1cccc(C(=O)NC(=O)O*)c1` (repeat unit) came in with a glass transition temperature of 66.00 °C.

The compound `*CC(C)(C)COC(=O)Nc1ccc(Cc2ccc(NC(=O)O*)cc2)cc1` (repeat unit) had a glass transition temperature of 94.00 °C.

`*CC(C)(C)COC(=O)c1ccc(-c2ccc(-c3ccc(C(=O)O*)cc3)cc2)cc1` (repeat unit) gave a glass transition temperature of 100.00 °C.

Consider `*CC(C)(C)CS(=O)(=O)CC(C)(C)COC(=O)Nc1ccc(Cc2ccc(NC(=O)O*)cc2)cc1` (repeat unit), for which the glass transition temperature amounted to 90.00 °C.

Take `*CC(C)(C)CS(=O)(=O)CC(C)(C)COC(=O)O*` (repeat unit): the glass transition temperature amounted to 50.00 °C.

Take `*CC(C)(CCC)COC(=O)c1ccc(-c2ccc(C(=O)O*)cc2)cc1` (repeat unit): the glass transition temperature came to 95.00 °C.

The compound `*CC(C)(CO)CO*` (repeat unit) registered a glass transition temperature of 62.00 °C.

As for `*CC(C)(CO*)COCC(F)(F)C(F)(F)C(F)(F)C(F)(F)C(F)(F)C(F)(F)C(F)(F)F` (repeat unit), the glass transition temperature was -49.00 °C.

As to `*CC(C)(CO*)COCC(F)(F)C(F)(F)C(F)(F)F` (repeat unit), the glass transition temperature was -45.00 °C.

In turn, `*CC(C)(CO*)COCCOCCOCCOC` (repeat unit) gave a glass transition temperature of -18.00 °C.

In turn, `*CC(C)(COC(=O)O*)C(=O)OCc1ccccc1` (repeat unit) had a glass transition temperature of -2.00 °C.

Regarding `*CC(C)COC(=O)c1ccc(C(=O)O*)cc1` (repeat unit), the glass transition temperature stood at 55.00 °C.

`*CC(CC)(CC)COC(=O)Nc1ccc(C)c(NC(=O)O*)c1` (repeat unit) returned a glass transition temperature of -60.00 °C.

Compound `*CC(CC)(CCl)CO*` (repeat unit) displayed a glass transition temperature of 20.00 °C.

`*CC(CCCC)COC(=O)NC(=O)c1cccc(C(=O)NC(=O)O*)c1` (repeat unit) gave a glass transition temperature of 64.00 °C.

In the case of `*CC(CCCCCCCCCC)C(CCCCCCCCCC)COC(=O)c1ccc(C(=O)O*)cc1` (repeat unit), the glass transition temperature is -38.00 °C.

The compound `*CC(CCCCCCCCCCCCCCCC)C(CCCCCCCCCCCCCCCC)COC(=O)c1ccc(C(=O)O*)cc1` (repeat unit) returned a glass transition temperature of -26.00 °C.

On to `*CC(CO)(CCl)COc1ccc(C(c2ccc(O*)cc2)(C(F)(F)F)C(F)(F)F)cc1` (repeat unit), for which the glass transition temperature was 107.00 °C.

With `*CC(CO*)(CS(=O)(=O)CCCCC)CS(=O)(=O)CCCCC` (repeat unit), the glass transition temperature is 56.00 °C.

`*CC(CO*)(CSC(C)C)CSC(C)C` (repeat unit) came in with a glass transition temperature of -9.00 °C.

Consider `*CC(COc1ccc(C(C)(C)c2ccc(O*)cc2)cc1)OC(=O)CC` (repeat unit), for which the glass transition temperature turned out to be 60.00 °C.

Compound `*CC(COc1ccc(O*)cc1)OC(C)=O` (repeat unit) yielded a glass transition temperature of 49.00 °C.

Turning to `*CC(C[N-][N+]#N)(C[N-][N+]#N)CO*` (repeat unit), the glass transition temperature is -30.00 °C.

`*CC(F)(F)C(F)(F)C(F)(F)COC(=O)c1cccc(C(=O)O*)c1OCCCCC` (repeat unit) registered a glass transition temperature of 17.00 °C.

In turn, `*CC(O)COc1ccc(O*)cc1` (repeat unit) had a glass transition temperature of 60.00 °C.

Compound `*CC(O)COc1cccc(O*)c1` (repeat unit) returned a glass transition temperature of 65.00 °C.

Regarding `*CC(OC(=O)C(Cc1ccccc1)NC(=O)OC(C)(C)C)C(COC(=O)O*)OC(=O)C(Cc1ccccc1)NC(=O)OC(C)(C)C` (repeat unit), the glass transition temperature was 82.40 °C.

As to `*CC(OC(=O)OCC)C(COC(=O)O*)OC(=O)OCC` (repeat unit), the glass transition temperature amounted to 49.80 °C.

`*CC(OC(C)=O)C(COC(=O)O*)OC(C)=O` (repeat unit) displayed a glass transition temperature of 58.60 °C.

In turn, `*CCOCC(CCl)O*` (repeat unit) yielded a glass transition temperature of -40.00 °C.

`*CCOCO*` (repeat unit): the glass transition temperature was -64.00 °C.

`*CCSCc1ccc(Cc2ccc(CSCCOC(=O)CSCc3ccc(Cc4ccc(CSCC(=O)O*)cc4)cc3)cc2)cc1` (repeat unit) gave a glass transition temperature of 14.00 °C.

In turn, `*CCSSCCO*` (repeat unit) gave a glass transition temperature of -53.00 °C.

With `*CCSSSSCCO*` (repeat unit), the glass transition temperature is -40.00 °C.

Consider `*COC(=O)OC1C(*)OC2OC(C)(C)OC21` (repeat unit), for which the glass transition temperature is 128.00 °C.

For the compound `*COC(=O)OCC1OC(OCC)(OCC)OC1*` (repeat unit), the glass transition temperature was found to be 10.80 °C.

In turn, `*C[Si](*)(C)CCCOCCOCCOC` (repeat unit) returned a glass transition temperature of -73.30 °C.

`*C[Si](*)(C)c1ccccc1` (repeat unit) registered a glass transition temperature of 28.00 °C.

Compound `*C[Si](*)(CCCC)CCCC` (repeat unit) had a glass transition temperature of -30.00 °C.

For the compound `*C[Si](*)(CCCCC)CCCCC` (repeat unit), the glass transition temperature was -55.00 °C.

Compound `*Cc1cc(C(C)(C)C)cc(*)c1O` (repeat unit) displayed a glass transition temperature of 50.00 °C.

`*Cc1ccc(CO*)cc1` (repeat unit) came in with a glass transition temperature of 217.00 °C.

With `*Cc1ccc(CSS*)cc1` (repeat unit), the glass transition temperature stood at 23.00 °C.

In the case of `*Cc1ccc(CSSSS*)cc1` (repeat unit), the glass transition temperature turned out to be 3.00 °C.

Turning to `*Cc1cccc(C[n+]2ccc(-c3cc[n+](*)cc3)cc2)c1` (repeat unit), the glass transition temperature amounted to 128.00 °C.

In turn, `*Nc1cccc(NC(=O)c2cc(NC(=O)c3ccncc3)cc(C(*)=O)c2)c1` (repeat unit) registered a glass transition temperature of 321.00 °C.

`*Nc1cccc2c(NC(=O)c3cc(NC(=O)C(CCSC)N4C(=O)c5ccccc5C4=O)cc(C(*)=O)c3)cccc12` (repeat unit) came in with a glass transition temperature of 198.00 °C.

In turn, `*OC(=O)OCC(OC)C(COC(=O)OC1COC2C(*)COC12)OC` (repeat unit) showed a glass transition temperature of 61.00 °C.

In turn, `*OC(C)COC(=O)c1ccc(C(*)=O)cc1` (repeat unit) yielded a glass transition temperature of 98.00 °C.

As for `*OC(C)COC(=O)c1cccc(C(*)=O)c1` (repeat unit), the glass transition temperature worked out at 77.00 °C.

Compound `*OC(COC(=O)c1ccc(-c2ccc(C(*)=O)cc2)cc1)COc1ccc(/N=N/c2ccc(C#N)cc2)cc1` (repeat unit) came in with a glass transition temperature of 141.00 °C.

For the compound `*OC(COC(=O)c1ccc(C(*)=O)c(OC)c1)COc1ccc(/N=N/c2ccc(C#N)cc2)cc1` (repeat unit), the glass transition temperature amounted to 120.00 °C.

As for `*OC(COC(=O)c1ccc(C(*)=O)cc1)COc1ccc(/N=N/c2ccc(C#N)cc2)cc1` (repeat unit), the glass transition temperature was 122.00 °C.

In the case of `*OC(COCCCC)COC(*)=O` (repeat unit), the glass transition temperature is -22.00 °C.

For the compound `*OC(F)(F)COC(=O)c1cc(OCCCCC)cc(C(=O)OCC(*)(F)F)c1` (repeat unit), the glass transition temperature worked out at 14.00 °C.

`*Oc1ccc(C(=O)OC(C)COC(C)COC(C)COC(=O)c2ccc(OC(=O)c3ccc(C(*)=O)cc3)cc2)cc1` (repeat unit) gave a glass transition temperature of 36.00 °C.

On to `*Oc1cccc(Oc2cccc(NC(=O)c3cc(Oc4ccc(C(=O)O)c(C(=O)Nc5cccc(*)c5)c4)ccc3C(=O)O)c2)c1` (repeat unit), for which the glass transition temperature was 176.40 °C.

The compound `*c1ccc(Oc2cccc(NC(=O)c3cc(NC(=O)c4ccc(OC(C)=O)cc4)cc(C(=O)Nc4cccc(Oc5ccc(-c6nnc(*)o6)cc5)c4)c3)c2)cc1` (repeat unit) showed a glass transition temperature of 270.00 °C.

Take `*c1ccc2c(c1)C(=O)N(c1ccc(OC(C)COc3ccc(N4C(=O)c5ccc(C(*)(C(F)(F)F)C(F)(F)F)cc5C4=O)cc3)cc1)C2=O` (repeat unit): the glass transition temperature stood at 234.00 °C.

Compound `*c1ccc2c(c1)C(=O)N(c1ccc(OC(CCC)COc3ccc(N4C(=O)c5ccc(C(*)(C(F)(F)F)C(F)(F)F)cc5C4=O)cc3)cc1)C2=O` (repeat unit) came in with a glass transition temperature of 204.00 °C.
